The target of this test is T1, mGluR5 receptor (Sus scrofa, UniProt I3LUI7).
T1 construct: 450 μg of protein from brain homogenate with 5 nM ^3[H]-MPEP; from tissue; host or cells: pig brain halves without medulla, cerebellum and pons
Briefly: [3H]-MPEP mGluR5 receptor binding assay (pig brain homogenate). The conditions noted are these: 5 nM [3H]-MPEP; for % Inhibition of mGluR5 Receptor (pig) [^3H]-MPEP Bond at 10 μM / inhibition at 10 µM: 10 μM compound; for inhibition at 10 µM: read-out: % Inhibition of mGluR5 Receptor (pig) [^3H]-MPEP Bond at 10 μM; for IC50: read-out: IC50 mGluR5 Receptor (pig) [^3H]-MPEP Bond. The procedure, abridged: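 Compounds at 10 μM competed with 5 nM [3H]-MPEP for binding to pig brain membranes (450 μg protein) for 60 min at room temperature in pH 8.0 Hepes buffer. Bound radioactivity was collected on glass-fibre filters and read by β-counting, with 10 μM unlabelled MPEP giving non-specific binding.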

Where a name gives a salt, the structure may show the parent alone.

T1 sequence (I3LUI7 19-1212): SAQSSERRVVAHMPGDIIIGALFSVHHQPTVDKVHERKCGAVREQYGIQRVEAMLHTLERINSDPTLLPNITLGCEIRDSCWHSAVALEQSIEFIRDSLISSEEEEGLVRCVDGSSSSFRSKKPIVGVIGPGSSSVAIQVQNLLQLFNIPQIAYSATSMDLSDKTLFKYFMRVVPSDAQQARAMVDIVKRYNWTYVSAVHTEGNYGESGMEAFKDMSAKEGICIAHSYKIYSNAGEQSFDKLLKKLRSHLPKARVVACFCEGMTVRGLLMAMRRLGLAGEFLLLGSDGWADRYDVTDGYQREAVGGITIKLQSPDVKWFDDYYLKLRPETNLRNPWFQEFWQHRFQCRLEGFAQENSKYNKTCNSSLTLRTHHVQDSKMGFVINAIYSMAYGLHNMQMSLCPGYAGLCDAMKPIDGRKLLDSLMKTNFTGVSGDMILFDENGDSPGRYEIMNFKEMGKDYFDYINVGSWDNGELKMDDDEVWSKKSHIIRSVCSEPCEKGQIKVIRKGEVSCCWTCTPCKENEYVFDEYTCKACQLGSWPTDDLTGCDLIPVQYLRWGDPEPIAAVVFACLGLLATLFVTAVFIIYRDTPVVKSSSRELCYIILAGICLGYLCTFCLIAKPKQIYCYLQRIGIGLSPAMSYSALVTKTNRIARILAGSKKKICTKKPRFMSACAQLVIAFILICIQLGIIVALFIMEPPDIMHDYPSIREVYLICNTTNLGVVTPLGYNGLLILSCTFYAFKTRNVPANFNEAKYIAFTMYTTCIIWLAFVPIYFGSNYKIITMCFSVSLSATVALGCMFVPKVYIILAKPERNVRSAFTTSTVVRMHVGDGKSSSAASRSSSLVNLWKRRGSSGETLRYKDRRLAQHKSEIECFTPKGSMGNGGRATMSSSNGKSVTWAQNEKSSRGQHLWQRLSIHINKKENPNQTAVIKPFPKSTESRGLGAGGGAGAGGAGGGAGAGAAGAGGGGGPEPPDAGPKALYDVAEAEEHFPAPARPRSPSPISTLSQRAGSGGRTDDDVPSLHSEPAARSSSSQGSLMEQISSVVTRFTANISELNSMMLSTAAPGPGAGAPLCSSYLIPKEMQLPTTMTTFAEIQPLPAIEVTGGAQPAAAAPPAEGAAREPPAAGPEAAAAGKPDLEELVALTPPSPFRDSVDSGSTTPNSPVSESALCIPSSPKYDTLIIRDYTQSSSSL

In the case of `CC(C)S(=O)(=O)N(Cc1cc(-c2ccc3ncnc(NC4CC4)c3c2)ccc1Cl)C1CC1` [Example 854, N-(2-chloro-5-(4-(cyclopropylamino)quinazolin-6-yl)benzyl)-N-cyclopropyl propane-2-sulfonamide], the “% Inhibition of mGluR5 Receptor (pig) [^3H]-MPEP Bond at 10 μM” value stood at 75%.
As usually defined, the inhibition is the relative decrease from the control value, in per cent. As for `CC(C)(C)Nc1ncnc2ccc(-c3ccc(F)c(CN(C(=O)c4ccc(F)cc4F)C4CC4)c3)cc12` [Example 855, N-(5-(4-(tert-butylamino)quinazolin-6-yl)-2-fluorobenzyl)-N-cyclopropyl-2,4-difluorobenzamide], the inhibition at 10 µM was found to be 83%.
As to `CCCCC(=O)N(Cc1cc(-c2ccc3ncnc(NC(C)(C)C)c3c2)ccc1F)C1CC1` [Example 856, N-(5-(4-(tert-butylamino)quinazolin-6-yl)-2-fluorobenzyl)-N-cyclopropyl pentanamide], the “% Inhibition of mGluR5 Receptor (pig) [^3H]-MPEP Bond at 10 μM” value was found to be 89%.
Still for that read-out and setting: to `CC(C)(C)Nc1ncnc2ccc(-c3ccc(F)c(CN(C4CC4)S(=O)(=O)c4ccc(Cl)cc4Cl)c3)cc12` [Example 857, N-(5-(4-(tert-butylamino)quinazolin-6-yl)-2-fluorobenzyl)-2,4-dichloro-N-cyclopropyl benzole sulfonamide] belongs 36%; to `O=S(=O)(c1cccc(C(F)(F)F)c1)N(Cc1cc(-c2ccc3ncnc(NC4CC4)c3c2)ccn1)C1CC1` [Example 858, N-cyclopropyl-N-((4-(4-(cyclopropylamino)quinazolin-6-yl)pyridin-2-yl)methyl)-3-(trifluoromethyl)benzole sulfonamide], 85%.
`O=C(c1c(F)c(F)c(F)c(F)c1F)N(Cc1cc(-c2ccc3ncnc(NC4CC4)c3c2)ccc1Cl)C1CC1` [Example 859, N-(2-chloro-5-(4-(cyclopropylamino)quinazolin-6-yl)benzyl)-N-cyclopropyl-2,3,4,5,6-pentafluorobenzamide]: the inhibition at 10 µM came out at 92%.
As for `CC(C)(C)Nc1ncnc2ccc(-c3ccc(F)c(CN(C(=O)c4ccc(C(F)(F)F)cc4F)C4CC4)c3)cc12` [Example 860, N-(5-(4-(tert-butylamino)quinazolin-6-yl)-2-fluorobenzyl)-N-cyclopropyl-2-fluoro-4-(trifluoromethyl)benzamide], the inhibition at 10 µM was 63%.
As to `CN(C)CC(=O)N(Cc1cc(-c2ccc3ncnc(NC(C)(C)C)c3c2)ccc1F)C1CC1` [Example 861, N-(5-(4-(tert-butylamino)quinazolin-6-yl)-2-fluorobenzyl)-N-cyclopropyl-2-(dimethylamino)acetamide], the inhibition at 10 µM was found to be 55%.
In general, IC50 refers to the concentration at which inhibition is half-maximal. With `CC(C)(C)CNc1ncnc2ccc(-c3cccc(CN4C(=O)CCC4=O)c3)cc12` [Example 866, 1-(3-(4-(neopentylamino)quinazolin-6-yl)benzyl)pyrrolidine-2,5-dione], the IC50 was found to be 90 nM.
For `COCCNc1ncnc2ccc(-c3cccc(CN4C(=O)CCC4=O)c3)cc12` [Example 867, 1-(3-(4-(2-methoxyethylamino)quinazolin-6-yl)benzyl)pyrrolidine-2,5-dione hydrochloride], the inhibition at 10 µM stood at 67%.
The same measure, in the same setting: to `NC1(C(=O)NCc2cccc(-c3ccc4ncnc(NC5CC5)c4c3)c2)CC1` [Example 869, 1-amino-N-(3-(4-(cyclopropylamino)quinazolin-6-yl)benzyl)cyclopropane carboxamide dihydrochloride] belongs 65%.
In the case of `O=C(N(Cc1cc(-c2ccc3ncnc(NC4CC4)c3c2)ccc1F)C1CC1)C(F)(F)F` [Example 870, N-cyclopropyl-N-(5-(4-(cyclopropylamino)quinazolin-6-yl)-2-fluorobenzyl)-2,2,2-trifluoroacetamide], the IC50 was found to be 10 nM.
In the case of `O=C1CCC(=O)N1Cc1cccc(-c2ccc3ncnc(NC4CCC4)c3c2)c1` [Example 872, 1-(3-(4-(cyclobutylamino)quinazolin-6-yl)benzyl)pyrrolidine-2,5-dione hydrochloride], the IC50 turned out to be 50 nM.
Take `CC(C)Nc1ncnc2ccc(-c3cccc(CN4C(=O)CCC4=O)c3)cc12` [Example 873, 1-(3-(4-(isopropylamino)quinazolin-6-yl)benzyl)pyrrolidine-2,5-dione hydrochloride]: the 50% inhibitory concentration (IC50) is 80 nM.
As to `c1cc(Cn2cccc2)cc(-c2ccc3ncnc(NC4CC4)c3c2)c1` [Example 876, 6-(3-((1H-pyrrol-1-yl)methyl)phenyl)-N-cyclopropylquinazoline-4-amine], the inhibition at 10 µM stood at 47%.
For the molecule `CN1CCN(Cc2cccc(-c3ccc4ncnc(NC5CC5)c4c3)c2)C1=O` [Example 877, 1-(3-(4-(cyclopropylamino)quinazolin-6-yl)benzyl)-3-methylimidazolidin-2-one], the half-maximal inhibitory concentration (IC50) turned out to be 9570 nM.
For `CN(Cc1cccc(-c2ccc3ncnc(NC4CC4)c3c2)c1)c1ccccn1` [Example 878, N-cyclopropyl-6-(3-((methyl(pyridin-2-yl)amino)methyl)phenyl)quinazoline-4-amine], the inhibition at 10 µM came to 56%.
For `CC(=O)N(Cc1cccc(-c2ccc3ncnc(NC4CC4)c3c2)c1)C(C)=O` [Example 879, N-acetyl-N-(3-(4-(cyclopropylamino)quinazolin-6-yl)benzyl)acetamide], the half-maximal inhibitory concentration (IC50) worked out at 1660 nM.
Same read-out and setting: to `O=C1CCC(=O)N1Cc1cccc(-c2ccc3ncnc(N4CCCC4)c3c2)c1` [Example 880, 1-(3-(4-(pyrrolidin-1-yl)quinazolin-6-yl)benzyl)pyrrolidine-2,5-dione] belongs 4300 nM; to `O=C1CCC(=O)N1Cc1cccc(-c2cc(Cl)c3ncnc(NC4CC4)c3c2)c1` [Example 881, 1-(3-(8-chloro-4-(cyclopropylamino)quinazolin-6-yl)benzyl)pyrrolidine-2,5-dione], 20 nM.
Still for that read-out and setting: with `O=C1CCC(=O)N1Cc1cccc(-c2cc(C(F)(F)F)c3ncnc(NC4CC4)c3c2)c1` [Example 883, 1-(3-(4-(cyclopropylamino)-8-(trifluoromethyl)quinazolin-6-yl)benzyl)pyrrolidine-2,5-dione] the figure was 20 nM; with `Cc1cc2ncnc(NC3CC3)c2cc1-c1cccc(CN2C(=O)CCC2=O)c1` [Example 884, 1-(3-(4-(cyclopropylamino)-7-methylquinazolin-6-yl)benzyl)pyrrolidine-2,5-dione], 130 nM.
For the molecule `CC1CCC(=O)N1Cc1cccc(-c2ccc3ncnc(NC4CC4)c3c2)c1` (stereo not drawn) [Example 885, 1-(3-(4-(cyclopropylamino)quinazolin-6-yl)benzyl)-5-methylpyrrolidine-2-one], the half-maximal inhibitory concentration (IC50) amounted to 400 nM.
Still for that read-out and setting: to `C=CCN(Cc1cccc(-c2ccc3ncnc(NC4CC4)c3c2)c1)C(C)=O` [Example 886, N-allyl-N-(3-(4-(cyclopropylamino)quinazolin-6-yl)benzyl)acetamide] belongs 1980 nM; to `CCCN(Cc1cccc(-c2ccc3ncnc(NC4CC4)c3c2)c1)C(C)=O` [Example 887, N-(3-(4-(cyclopropylamino)quinazolin-6-yl)benzyl)-N-propylacetamide hydrochloride], 3100 nM.
Still for that read-out and setting: to `c1ccc(N(Cc2cccc(-c3ccc4ncnc(NC5CC5)c4c3)c2)C2CC2)nc1` [Example 888, N-cyclopropyl-6-(3-((cyclopropyl(pyridin-2-yl)amino)methyl)phenyl)quinazoline-4-amine] belongs 2650 nM; to `O=C1CCC(=O)N1Cc1cc(F)cc(-c2ccc3ncnc(NC4CC4)c3c2)c1` [Example 889, 1-(3-(4-(cyclopropylamino)quinazolin-6-yl)-5-fluorobenzyl)pyrrolidine-2,5-dione], 500 nM; to `CC(=O)N(Cc1cccc(-c2ccc3ncnc(NC4CC4)c3c2)n1)C1CC1` [Example 890, N-cyclopropyl-N-((6-(4-(cyclopropylamino)quinazolin-6-yl)pyridin-2-yl)methyl)acetamide], 4620 nM.
On the same count and under the same terms, to `CN(Cc1cccc(-c2ccc3ncnc(NC4CC4)c3c2)c1)C1CC1` [Example 891, N-cyclopropyl-6-(3-((cyclopropyl(methyl)amino)methyl)phenyl)quinazoline-4-amine] belongs 5600 nM; to `c1cc(CN(c2nccs2)C2CC2)cc(-c2ccc3ncnc(NC4CC4)c3c2)c1` [Example 892, N-cyclopropyl-N-(3-(4-(cyclopropylamino)quinazolin-6-yl)benzyl)thiazole-2-amine], 80 nM; to `CC(=O)N(Cc1cccc(-c2ccc3ncnc(NC4CC4)c3c2)c1)C1CCC1` [Example 893, N-cyclobutyl-N-(3-(4-(cyclopropylamino)quinazolin-6-yl)benzyl)acetamide], 3210 nM.
On to `CCN(Cc1cccc(-c2ccc3ncnc(NC4CC4)c3c2)c1)C(C)=O` [Example 894, N-(3-(4-(cyclopropylamino)quinazolin-6-yl)benzyl)-N-ethylacetamide], for which the half-inhibitory concentration (IC50) is 1000 nM.
As for `O=C1CCC(=O)N1Cc1ccc(F)c(-c2ccc3ncnc(NC4CC4)c3c2)c1` [Example 895, 1-(3-(4-(cyclopropylamino)quinazolin-6-yl)-4-fluorobenzyl)pyrrolidine-2,5-dione], the inhibition at 10 µM is 72%.
For the molecule `CC(=O)N(Cc1ccc(F)c(-c2ccc3ncnc(NC4CC4)c3c2)c1)C1CC1` [Example 896, N-cyclopropyl-N-(3-(4-(cyclopropylamino)quinazolin-6-yl)-4-fluorobenzyl)acetamide], the inhibition at 10 µM stood at 78%.
Take `CC(=O)N(Cc1cc(F)cc(-c2ccc3ncnc(NC4CC4)c3c2)c1)C1CC1` [Example 897, N-cyclopropyl-N-(3-(4-(cyclopropylamino)quinazolin-6-yl)-5-fluorobenzyl)acetamide]: the 50% inhibitory concentration (IC50) turned out to be 20 nM.
On to `COC(=O)N(Cc1cccc(-c2ccc3ncnc(NC4CC4)c3c2)c1)C1CC1` [Example 898, methyl cyclopropyl(3-(4-(cyclopropylamino)quinazolin-6-yl)benzyl)carbamate], for which the half-inhibitory concentration (IC50) came out at 90 nM.

(Values after patent US20090069320A1, “Substituted 4-Amino-Quinazoline Compounds with Metabotropic Glutamate Receptor Regulating Activity and Uses Thereof” (Gruenenthal GmbH, priority 2006, published 2009).)
